We go through seven molecules from patent US20240182941A1, “XYLOSYLATED STEVIOL GLYCOSIDES AND ENZYMATIC METHODS FOR PRODUCTION” (CARGILL, INCORPORATED, priority 2021, published 2024).

“And” between values parts separate entries of the source, which are not always exact repeats. Equal values may be shown once.

For assay [1], the system named is purified protein of SEQ ID NO:1. Description: Time course of glycosylation of Reb A using SEQ ID NO:1 and activated sugars. It is filed as biochemical, Oryza sativa Japonica Group. On the procedure:
(§1) Bioconversion reaction was carried out in a total of 100 uL sealed vials containing the Tris buffer, 0.1 μmoles of SG acceptor, 0.2 μmoles of activated sugar donor, 1 μmoles of sucrose and 2 ug protein of the enzymes. To each vial, buffer, sucrose, UDP-sugar donor, and SG acceptor were added in that order before finally the enzymes were added. For each SG donor, a control was included to contain the same amounts of sucrose and enzymes without UDP-sugar donors. After hand mixing, the vials were placed in a temperature-controlled shaker set at 30C and 100 rpm in rotating motion for 96 hours (4 days).
(§2) After 4 days of reaction, 0.9 mL of 80% acetonitrile was added to each vial and the resulting samples were analyzed in LC/MS. Xylose modification of the -19C(O)-β-Glc residue was confirmed.
The ability of SEQ ID NO:1 to glycosylate Reb A with different activated sugars used at different concentrations was examined, with the reaction products formed being measured over the course of the reaction.
Purified protein of SEQ ID NO:1 was used with UDP-glucose, UDP-xylose, and UDP-rhamnose di-sodium salts, and the reagents and reaction conditions were as described in Example 1.

The conditions of assay [2]: cited from earlier work.
The target of another assay is T1, UGT76G1 (Stevia rebaudiana, UniProt Q6VAB4).
T1 construct: unspecified tag; made in house; host or cells: E. coli
T1 sequence (Q6VAB4 1-458): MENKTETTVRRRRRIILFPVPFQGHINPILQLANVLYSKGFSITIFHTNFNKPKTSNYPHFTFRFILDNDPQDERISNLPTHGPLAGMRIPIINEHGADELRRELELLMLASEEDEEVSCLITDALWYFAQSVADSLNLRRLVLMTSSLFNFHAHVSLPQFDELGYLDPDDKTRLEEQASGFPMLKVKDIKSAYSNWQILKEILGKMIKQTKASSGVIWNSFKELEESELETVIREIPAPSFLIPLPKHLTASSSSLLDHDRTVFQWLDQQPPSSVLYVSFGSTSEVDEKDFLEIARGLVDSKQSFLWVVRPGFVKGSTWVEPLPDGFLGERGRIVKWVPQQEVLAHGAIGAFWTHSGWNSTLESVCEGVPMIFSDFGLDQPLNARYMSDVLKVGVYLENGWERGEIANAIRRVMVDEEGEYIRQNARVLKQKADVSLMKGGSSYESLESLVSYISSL
Description: SG bioconversion with UDP-xylose using UGT76G1. It is filed as biochemical. To be noted: enzyme UGT76G1, 2 ug protein, 96 hours, 30C, runs 1 and 2. On the procedure: (§3) Six steviolglycoside (SG) ‘acceptors’ Reb A, B, C, D, M and stevioside were tested using 2 glucosyltransferase enzymes (SEQ ID NO:1 and UGT76G1) known to play key roles in SG biosynthesis in stevia leaves and activated xylose (UDP-xylose).
(§4) UDP-xylose (98.9% purity) and UDP-rhamnose di-sodium salt (95% purity) were purchased from BOC Sciences. The activated sugar donors were prepared to 10 mM concentration with 0.05 M tris buffer and stored according to manufacturers' recommendations before use.
(§5) Enzyme of SEQ ID NO:1 and UGT76G1 enzyme were prepared in E. coli host cells as tagged proteins with expression induced by a chemical inducer. Following induction, the cells were incubated overnight and harvested. The cells were then lysed (either through sonication, mechanical disruption or chemical lysis) and the proteins purified through chromatography and stored frozen at −20C till use. Enzyme activities were confirmed using UDP-glucose in a preliminary test. Frozen enzyme solution was thawed right before use and returned to frozen storage after use.
(§6) SG materials were obtained from various sources with 90%+ purities. All SG materials were prepared at 20 mM with 90% DMSO and stored at ambient temperature. Final DMSO concentration in the reaction mixture was 4.5%.
(§7) Sucrose, previously shown to have a stabilizing effect on the bioconversion reaction, was prepared at 0.1 M with 0.05 M tris buffer.
(§8) Tris (tris(hydroxymethyl)aminomethane) buffer was prepared at 0.05 M, pH 7.3 and contained 3 mM each of MgCl2 and MnCl2 as co-factors.
as §1, §2

Assay [3] concerns glycosyltransferase polypeptide of SEQ ID NO:1. Description: SG bioconversion with UDP-xylose using enzyme of SEQ ID NO:1. Type of assay: biochemical, Oryza sativa Japonica Group. The conditions noted are these: enzyme SEQ ID NO:1, 2 ug protein, 96 hours, 30C, runs 1 and 2. As for the experimental part:
as §3, §4, §5, §6, §7, §8, §1, §2

Assay [4] is described as follows: Glycosyltransferase assay of SEQ ID NO:1 homologs and variants (IVTT enzymes) on Reb A. Type of assay: biochemical. To be noted: Reb A acceptor, SEQ ID1 = 100%; for Activity relative to the activity of SEQ ID NO:1, Glucose: UDP-glucose; for Activity relative to the activity of SEQ ID NO:1, Xylose: UDP-xylose. As for the experimental part: Candidate xylosyltransferase enzymes are produced in vitro using the PURExpress In Vitro Protein Synthesis kit from New England Biolabs (NEB #E6800) according to the manufacturer's instructions, including 250 ng plasmid DNA and the addition of 20 units RNase Inhibitor, Murine (NEB #M0314).
The steviol glycoside (SG) ‘acceptors’ Reb A was tested using 4 glucosyltransferase enzymes (SEQ ID NOs: 1-4) homologous to glucosyltransferases in SG biosynthesis in stevia leaves.
UDP-xylose (98.9% purity) was purchased from BOC Sciences. The activated sugar donors were prepared to 10 mM concentration with 0.05 M tris buffer and stored according to manufacturers' recommendations before use. SG materials were obtained from various sources with 90%+ purities. All SG materials were prepared at 20 mM with 90% DMSO and stored at ambient temperature. Final DMSO concentration in the reaction mixture was 4.5%.
as §8
Enzymes were produced via in vitro transcription-translation (IVTT) and activities were confirmed using UDP-glucose in a preliminary test. Bioconversion reaction was carried out in a total of 100 μL sealed vials containing the Tris buffer, 0.1 μmoles of SG acceptor, 0.2 μmoles of activated sugar donor, 1 μmoles of sucrose and 2 μg protein of the enzymes. To each vial, buffer, UDP-sugar donor, SG acceptor were added in that order before, finally, the enzymes were added. For each SG donor, a control was included to contain the same amounts of enzymes without UDP-sugar donors. […]
[…] Xylose modification of the -19C(O)-β-Glc residue was confirmed.
Activity of SEQ ID NOs: 2-4 is expressed relative to the activity of SEQ ID NO:1. […] [SEQ ID NO:3 was run more than once in this experiment,]

For the molecule `C=C1C[C@@]23CC[C@H]4[C@@](C)(CCC[C@@]4(C)C(=O)O[C@@H]4O[C@H](CO)[C@@H](O)[C@H](O)[C@H]4O)[C@@H]2CC[C@]1(O[C@@H]1O[C@H](CO)[C@@H](O)[C@H](O[C@@H]2O[C@H](CO)[C@@H](O)[C@H](O)[C@H]2O)[C@H]1O[C@@H]1O[C@H](CO)[C@@H](O)[C@H](O)[C@H]1O)C3` [Reb A, rebaudioside A], the “glucosylation and xylosylation plateaued after” value in assay [1] (1 mM activated sugars) and in assay [1] (2 mM activated sugars) was 20 min throughout. Further, the “Rhamnosylation using UDP-rhamnose compared with glucosylation and xylosylation” value in assay [1] (2 mM activated sugars) is “significantly lower”. Besides, the “% Reb A bioconversion” value in assay [1] (UDP-Glucose (1 mM), 0 hours) is on record as 0%; in assay [1] (UDP-Glucose (1 mM), 18 hours), 68.47%; in assay [1] (UDP-Glucose (1 mM), 48 hours) it was 68.6%; in assay [1] (UDP-Glucose (1 mM), 96 hours), 68.1%; in assay [1] (UDP-Glucose (2 mM), 0 hours) it was 0%; in assay [1] (UDP-Glucose (2 mM), 18 hours), 84.93%. The “% Reb A bioconversion” value in assay [1] (UDP-Glucose (2 mM), 48 hours) was found to be 83.9%; in assay [1] (UDP-Glucose (2 mM), 96 hours), 82.1%; in assay [1] (UDP-Rhamnose (2 mM), 0 hours) it was 0%; in assay [1] (UDP-Rhamnose (2 mM), 18 hours), 14.7%; in assay [1] (UDP-Rhamnose (2 mM), 48 hours), 25%; in assay [1] (UDP-Rhamnose (2 mM), 96 hours), 30%. Moreover, the “% Reb A bioconversion” value is reported as 0% in assay [1] (UDP-Xylose (1 mM), 0 hours); 60.09% in assay [1] (UDP-Xylose (1 mM), 18 hours); 60.39% in assay [1] (UDP-Xylose (1 mM), 48 hours); 60.66% in assay [1] (UDP-Xylose (1 mM), 96 hours); 0% in assay [1] (UDP-Xylose (2 mM), 0 hours); 83.26% in assay [1] (UDP-Xylose (2 mM), 18 hours). For the same molecule, the “% Reb A bioconversion” value in assay [1] (UDP-Xylose (2 mM), 48 hours) is 83.5%; in assay [1] (UDP-Xylose (2 mM), 96 hours), 82.33%. Moreover, in assay [2] (times sweeter than sucrose), the “sweetness relative to sucrose” value is given as 250-300 times.
On to `C=C1C[C@@]23CC[C@H]4[C@@](C)(CCC[C@@]4(C)C(=O)O)[C@@H]2CC[C@]1(O[C@@H]1O[C@H](CO)[C@@H](O)[C@H](O[C@@H]2O[C@H](CO)[C@@H](O)[C@H](O)[C@H]2O)[C@H]1O[C@@H]1O[C@H](CO)[C@@H](O)[C@H](O)[C@H]1O)C3` [Reb B], for which the “% SG bioconversion with UDP-xylose” value (at UGT76G1; in assay [3]) was 0% in each case.
As for `C=C1C[C@@]23CC[C@H]4[C@@](C)(CCC[C@@]4(C)C(=O)O[C@@H]4O[C@H](CO)[C@@H](O)[C@H](O)[C@H]4O[C@@H]4O[C@H](CO)[C@@H](O)[C@H](O)[C@H]4O)[C@@H]2CC[C@]1(O[C@@H]1O[C@H](CO)[C@@H](O)[C@H](O[C@@H]2O[C@H](CO)[C@@H](O)[C@H](O)[C@H]2O)[C@H]1O[C@@H]1O[C@H](CO)[C@@H](O)[C@H](O)[C@H]1O)C3` [Reb D, Rebaudioside D], the “% SG bioconversion with UDP-xylose” value is recorded as 0% at UGT76G1 and approximately 10% in assay [3].
Taken in the same sequence, the figures for `C=C1C[C@@]23CC[C@H]4[C@@](C)(CCC[C@@]4(C)C(=O)O[C@@H]4O[C@H](CO)[C@@H](O)[C@H](O[C@@H]5O[C@H](CO)[C@@H](O)[C@H](O)[C@H]5O)[C@H]4O[C@@H]4O[C@H](CO)[C@@H](O)[C@H](O)[C@H]4O)[C@@H]2CC[C@]1(O[C@@H]1O[C@H](CO)[C@@H](O)[C@H](O[C@@H]2O[C@H](CO)[C@@H](O)[C@H](O)[C@H]2O)[C@H]1O[C@@H]1O[C@H](CO)[C@@H](O)[C@H](O)[C@H]1O)C3` [Reb M, Rebaudioside M] were 0% and 0%.
`C=C1C[C@@]23CC[C@H]4[C@@](C)(CCC[C@@]4(C)C(=O)O[C@@H]4O[C@H](CO)[C@@H](O)[C@H](O)[C@H]4O)[C@@H]2CC[C@]1(O[C@@H]1O[C@H](CO)[C@@H](O)[C@H](O)[C@H]1O[C@@H]1O[C@H](CO)[C@@H](O)[C@H](O)[C@H]1O)C3` [Stevioside, stevioside]: the “% SG bioconversion with UDP-xylose” value at UGT76G1 is 40.5% and 39.0%; in assay [3], 85.9% and 90.2%; in assay [3] (listed as stevioside), “very high conversion”.
On to rebaudioside C [Reb C], for which, at UGT76G1, the “% SG bioconversion with UDP-xylose” value is 11.0% and 10.1%. The “sweetness relative to glucose” value in assay [2] (times sweeter than glucose) is recorded as 30 times.

B1: SEQ ID4: glucosyltransferase enzyme, 25% identity to SEQ ID NO:1 (protein, listed as Lycium barbarum)
chain: MGTEVTVHKNTLRVLMFPWLAYGHISPFLNVAKKLVDRGFLIYLCSTAINLKSTIKKIPEKYSDSIQLIELHLPELPELPPHYHTTNGLPPHLNHTLQKALKMSKPNFSKILQNLKPDLVIYDLLQQWAEGVANEQNIPAVKLLTSGAAVLSYFFNLVKKPGVEFPFPAIYLRKNELEKMSELLAQSAKDKEPDGVDPFADGNMQVMLMSTSRIIEAKYIDYFSGLSNWKVVPVGPPVQDPIADDADEMELIDWLGKKDENSTVFVSFGSEYFLSKEDREEIAFGLELSNVNFIWVARFPKGEEQNLEDALPKGFLERIGDRGRVLDKFAPQPRILNHPSTGGFISHCGWNSVMESVDFGVPIIAMPIHLDQPMNARLIVELGVAVEIVRDDYGKIHREEIAEILKDVIAGKSGENLKAKMRDISKNLKSIRDEEMDTAAEELIQLCKNSPKLK
Consider B1, for which the results for the “Activity relative to the activity of SEQ ID NO:1, Glucose” value in assay [4] (18 hrs), in assay [4] (48 hrs) and in assay [4] (96 hrs) were 174%, 151% and 170%, respectively. For the same molecule, the “Activity relative to the activity of SEQ ID NO:1, Xylose” value in assay [4] (18 hrs) worked out at 11.5%; in assay [4] (48 hrs) it was 9.68%; in assay [4] (96 hrs) it was 10.9%.
